How the values were obtained:
bedstraw = assay: Test B pre/postemergence bedstraw; type: in vivo, Galium aparine
How it was run: (§1)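 Response is a visual 0-to-10 score relative to untreated plants, where 0 means no effect and 10 means complete control, taken twelve to sixteen days after application. Treatments went onto soil at planting and onto foliage of 1- to 4-leaf plants, using a surfactant-containing non-phytotoxic solvent.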

blackgrass = assay: Test B pre/postemergence blackgrass; type: in vivo, Alopecurus myosuroides
How it was run: as §1

surinam grass = assay: Test B pre/postemergence surinam grass; type: in vivo, Brachiaria decumbens
How it was run: as §1

cocklebur = assay: Test B pre/postemergence cocklebur; type: in vivo, Xanthium strumarium
How it was run: as §1

corn = assay: Test B pre/postemergence corn; type: in vivo, Zea mays
How it was run: as §1

crabgrass = assay: Test B pre/postemergence crabgrass; type: in vivo, Digitaria sanguinalis
How it was run: as §1

giant foxtail = assay: Test B pre/postemergence giant foxtail; type: in vivo, Setaria faberii
How it was run: as §1

morningglory = assay: Test B pre/postemergence morningglory; type: in vivo, Ipomoea hederacea
How it was run: as §1

pigweed = assay: Test B pre/postemergence pigweed; type: in vivo, Amaranthus retroflexus
How it was run: as §1

rape = assay: Test B pre/postemergence rape; type: in vivo, Brassica napus
How it was run: as §1

soybean = assay: Test B pre/postemergence soybean; type: in vivo, Glycine max
How it was run: as §1

sugar beet = assay: Test B pre/postemergence sugar beet; type: in vivo, Beta vulgaris
How it was run: as §1

velvetleaf = assay: Test B pre/postemergence velvetleaf; type: in vivo, Abutilon theophrasti
How it was run: as §1

wheat = assay: Test B pre/postemergence wheat; type: in vivo, Triticum aestivum
How it was run: as §1

wild oat = assay: Test B pre/postemergence wild oat; type: in vivo, Avena fatua
How it was run: as §1

purple nutsedge = assay: Test B pre/postemergence purple nutsedge; type: in vivo, Cyperus rotundus
How it was run: as §1

[1] = Preemergence, Rate 62 g/ha, scale of 0 to 10 where 0 is no effect and 10 is complete control
[2] = Preemergence, Rate 250 g/ha, scale of 0 to 10 where 0 is no effect and 10 is complete control
[3] = Preemergence, Rate 500 g/ha, scale of 0 to 10 where 0 is no effect and 10 is complete control
[4] = Rate 62 g/ha, Postemergence, scale 0 to 10, 0 no effect, 10 complete control
[5] = Rate 125 g/ha, Postemergence, scale of 0 to 10 where 0 is no effect and 10 is complete control
[6] = Rate 125 g/ha, Preemergence, scale of 0 to 10 where 0 is no effect and 10 is complete control
[7] = Rate 250 g/ha, Postemergence, scale of 0 to 10 where 0 is no effect and 10 is complete control
[8] = Rate 500 g/ha, Postemergence, scale 0 to 10, 0 no effect, 10 complete control

CC(=O)OCn1c(=O)on(C(=O)N(c2ccc(F)cc2)C(C)C)c1=O [Compound 292]
2: Plant response rating, Morningglory (morningglory; [7])
1: Morningglory plant response rating (morningglory; [5]) | Plant response rating, Soybean (soybean; [7])
0: Bedstraw plant response rating (bedstraw; [1]) | Bedstraw plant response rating (bedstraw; [2]) | Plant response rating, Bedstraw (bedstraw; [3]) | Bedstraw plant response rating (bedstraw; [4]) | Bedstraw plant response rating (bedstraw; [5]) | Bedstraw plant response rating (bedstraw; [6]) | Plant response rating, Bedstraw (bedstraw; [7]) | Bedstraw plant response rating (bedstraw; [8]) | Blackgrass plant response rating (blackgrass; [1]) | Blackgrass plant response rating (blackgrass; [2]) | Plant response rating, Blackgrass (blackgrass; [3]) | Blackgrass plant response rating (blackgrass; [4]) | Blackgrass plant response rating (blackgrass; [5]) | Blackgrass plant response rating (blackgrass; [6]) | Plant response rating, Blackgrass (blackgrass; [7]) | Blackgrass plant response rating (blackgrass; [8]) | B. signalgrass plant response rating (surinam grass; [1]) | B. signalgrass plant response rating (surinam grass; [2]) | Plant response rating, B. signalgrass (surinam grass; [3]) | B. signalgrass plant response rating (surinam grass; [4]) | B. signalgrass plant response rating (surinam grass; [5]) | B. signalgrass plant response rating (surinam grass; [6]) | Plant response rating, B. signalgrass (surinam grass; [7]) | B. signalgrass plant response rating (surinam grass; [8]) | Cocklebur plant response rating (cocklebur; [1]) | Cocklebur plant response rating (cocklebur; [2]) | Plant response rating, Cocklebur (cocklebur; [3]) | Cocklebur plant response rating (cocklebur; [4]) | Cocklebur plant response rating (cocklebur; [5]) | Cocklebur plant response rating (cocklebur; [6]) | Plant response rating, Cocklebur (cocklebur; [7]) | Cocklebur plant response rating (cocklebur; [8]) | Corn plant response rating (corn; [1]) | Corn plant response rating (corn; [2]) | Plant response rating, Corn (corn; [3]) | Corn plant response rating (corn; [4]) | Corn plant response rating (corn; [5]) | Corn plant response rating (corn; [6]) | Plant response rating, Corn (corn; [7]) | Corn plant response rating (corn; [8]) | Crabgrass plant response rating (crabgrass; [1]) | Crabgrass plant response rating (crabgrass; [2]) | Plant response rating, Crabgrass (crabgrass; [3]) | Crabgrass plant response rating (crabgrass; [4]) | Crabgrass plant response rating (crabgrass; [5]) | Crabgrass plant response rating (crabgrass; [6]) | Plant response rating, Crabgrass (crabgrass; [7]) | Giant foxtail plant response rating (giant foxtail; [1]) | Giant foxtail plant response rating (giant foxtail; [2]) | Plant response rating, Giant foxtail (giant foxtail; [3]) | Giant foxtail plant response rating (giant foxtail; [4]) | Giant foxtail plant response rating (giant foxtail; [5]) | Giant foxtail plant response rating (giant foxtail; [6]) | Plant response rating, Giant foxtail (giant foxtail; [7]) | Morningglory plant response rating (morningglory; [1]) | Morningglory plant response rating (morningglory; [2]) | Plant response rating, Morningglory (morningglory; [3]) | Morningglory plant response rating (morningglory; [4]) | Morningglory plant response rating (morningglory; [6]) | Redroot pigweed plant response rating (pigweed; [1]) | Redroot pigweed plant response rating (pigweed; [2]) | Plant response rating, Redroot pigweed (pigweed; [3]) | Redroot pigweed plant response rating (pigweed; [4]) | Redroot pigweed plant response rating (pigweed; [5]) | Redroot pigweed plant response rating (pigweed; [6]) | Plant response rating, Redroot pigweed (pigweed; [7]) | Rape plant response rating (rape; [1]) | Rape plant response rating (rape; [2]) | Plant response rating, Rape (rape; [3]) | Rape plant response rating (rape; [4]) | Rape plant response rating (rape; [5]) | Rape plant response rating (rape; [6]) | Plant response rating, Rape (rape; [7]) | Soybean plant response rating (soybean; [1]) | Soybean plant response rating (soybean; [2]) | Plant response rating, Soybean (soybean; [3]) | Soybean plant response rating (soybean; [4]) | Soybean plant response rating (soybean; [5]) | Soybean plant response rating (soybean; [6]) | Sugarbeets plant response rating (sugar beet; [1]) | Sugarbeets plant response rating (sugar beet; [2]) | Plant response rating, Sugarbeets (sugar beet; [3]) | Sugarbeets plant response rating (sugar beet; [4]) | Sugarbeets plant response rating (sugar beet; [5]) | Sugarbeets plant response rating (sugar beet; [6]) | Plant response rating, Sugarbeets (sugar beet; [7]) | Velvetleaf plant response rating (velvetleaf; [1]) | Velvetleaf plant response rating (velvetleaf; [2]) | Plant response rating, Velvetleaf (velvetleaf; [3]) | Velvetleaf plant response rating (velvetleaf; [4]) | Velvetleaf plant response rating (velvetleaf; [5]) | Velvetleaf plant response rating (velvetleaf; [6]) | Plant response rating, Velvetleaf (velvetleaf; [7]) | Wheat plant response rating (wheat; [1]) | Wheat plant response rating (wheat; [2]) | Plant response rating, Wheat (wheat; [3]) | Wheat plant response rating (wheat; [4]) | Wheat plant response rating (wheat; [5]) | Wheat plant response rating (wheat; [6]) | Plant response rating, Wheat (wheat; [7]) | Wild oats plant response rating (wild oat; [1]) | Wild oats plant response rating (wild oat; [2]) | Plant response rating, Wild oats (wild oat; [3]) | Wild oats plant response rating (wild oat; [4]) | Wild oats plant response rating (wild oat; [5]) | Plant response rating, Wild oats (wild oat; [7]) | Nutsedge plant response rating (purple nutsedge; [1]) | Nutsedge plant response rating (purple nutsedge; [2]) | Plant response rating, Nutsedge (purple nutsedge; [3]) | Nutsedge plant response rating (purple nutsedge; [4]) | Nutsedge plant response rating (purple nutsedge; [5]) | Nutsedge plant response rating (purple nutsedge; [6]) | Plant response rating, Nutsedge (purple nutsedge; [7])

Reference: patent US6737383B1, “Herbicidal oxadiazolidines” (priority 1999, dated 2004)
